Test results published in US20150374646A1, “TREATMENT OF CANCER AND OTHER CONDITIONS USING A TRANSCRIPTION FACTOR MODULATOR” (C & C BIOPHARMA, LLC, priority 2013, published 2015).

Key:
K562 cells = assay: Subcutaneous K562 (CML) tumor growth in SCID mice (Example 6); format: in vivo; conditions: Imatinib 100 mg/kg p.o. × 16 days, SCID mice, K562 tumor
Protocol: Male Severe Combined Immunodeficiency (SCID) mice that were 4-6 weeks old were used in the experiment. The mice were fed under specific pathogen free (SPF) conditions. Food and water were available to the mice at will. A suspension of 8×10^6 chronic myelogenous leukemia K562 cells (0.2 mL) was inoculated subcutaneously into the right back of the SCID mice.
The general conditions of the mice and the growth of the transplanted tumor were monitored. […] The control group received an intraperitoneal injection (IP) of 0.2 mL solvent (20% DMSO, 80% of 20% w/v (2-hydroxypropyl)-β-cyclodextrin made in PBS). […] The YT30 treated groups received either intraperitoneal injection of 50 mg/kg/day of YT30 (0.2 mL in volume) suspended in solvent (20% DMSO, 80% of 20% w/v (2-hydroxypropyl)-β-cyclodextrin made in PBS) or oral gavage of 90 mg/kg/day YT30 in solvent (Cremophor RH40:TW80:PEG400 (2:1:1)). Frequency of the administration was once per day and the experiment lasted 16 days after initiation of the treatment.
The body weights of the mice were recorded prior to the start of treatment and twice every week thereafter. Each mouse of every group was monitored daily for any other symptoms of side effects including change in behavior, activity or posture, areas of redness and swelling, and food and water withdrawal. Caliper measurements of the longest perpendicular tumor diameters were performed every 2 days to estimate the tumor volume; the following formula: 4π/3×(width/2)^2×(length/2) was used to calculate the three-dimensional volume of an ellipse. The tumor inhibition rate was calculated according to tumor volume: Tumor inhibition rate by size (%)=(Tumor volume of the control group−Tumor volume of the treated group)/Tumor volume of the control group×100. The SCID mice were euthanized 2 hours after the final injection and the subcutaneous tumor nodules were taken out intact and weighed. The tumor inhibition rate was calculated again according to tumor weight: Tumor inhibition rate by weight (%)=(Tumor weight of the control group−Tumor weight of the treated group)/Tumor weight of the control group×100.

MV4-11 cells = assay: Subcutaneous MV4-11 leukemia tumor growth in NOD/SCID mice (Example 5); format: in vivo; conditions: 100 mg/kg p.o. × 27 days
Protocol: Female Nonobese Diabetic/Severe Combined Immunodeficiency (NOD/SCID) mice that were 4-6 weeks old were used in the experiment. The mice were fed under specific pathogen free (SPF) conditions. Food and water were available to the mice at will. A suspension of 1×10^7 cells per mouse B-myelomonocytic leukemia MV4-11 cells (0.2 mL) in logarithmic phase were inoculated subcutaneously into the right back of the NOD/SCID nude mice.
The general conditions of the mice and the growth of the transplanted tumor were monitored. […] The control group received an intraperitoneal (IP) injection of 0.2 mL of solvent (20% DMSO, 80% of 20% w/v (2-hydroxypropyl)-β-cyclodextrin made in PBS). […] The high dosage group received an intraperitoneal injection of 50 mg/kg/day of YT30 (0.2 mL in volume) suspended in solvent (20% DMSO, 80% of 20% w/v (2-hydroxypropyl)-β-cyclodextrin made in PBS), while the low dosage group received IP injection of 25 mg/kg/day YT30 (0.2 mL in volume). Frequency of the administration was once per day and the experiment lasted 27 days after treatment started.
The body weights of the mice were recorded prior to the start of treatment and twice every week thereafter. Each mouse of every group was monitored daily for any other symptoms of side effects including change in behavior, activity or posture, areas of redness and swelling, and food and water withdrawal. Caliper measurements of the longest perpendicular tumor diameters were performed every 2 days to estimate the tumor volume; the following formula: 4π/3×(width/2)^2×(length/2) was used to calculate the three-dimensional volume of an ellipse. The tumor inhibition rate was calculated according to tumor volume: Tumor inhibition rate by size (%)=(Tumor volume of the control group−Tumor volume of the treated group)/Tumor volume of the control group×100. The mice were euthanized on the next day after the final injection and the subcutaneous tumor nodules were taken out intact and weighed. The tumor inhibition rate was calculated again according to tumor weight: Tumor inhibition rate by weight (%)=(Tumor weight of the control group−Tumor weight of the treated group)/Tumor weight of the control group×100).

Nalm-6 [1] = assay: cells; conditions: Homo sapiens, NALM-6, 72 h, read-out: 72 hr growth inhibition (%)
Protocol: (§1) Various human leukemia cells were grown to the logarithmic growth phase and seeded into 24-well plates. […] Treated cells were further incubated for 72 hours and then were examined for cell proliferation. Cell proliferation was determined using the CellTiter-Glo Luminescence Cell Viability assay (Promega Corporation, Madison, Wis.) according to the manufacturer's protocol. The calculated inhibition rate was determined with the following formula: Inhibition rate (%)=(1−Luminescence of experimental group/Luminescence of control group)×100. IC50 is the calculated concentration of a compound needed to inhibit half of the maximum cell growth (equivalent to cell growth in control group) based on the corresponding dose-response curve under the described experimental conditions.
Growth inhibition experiments were performed as previously described.

Nalm-6 [2] = assay: Leukemia cell growth inhibition, CellTiter-Glo (Example 1); format: cell-based, human; conditions: Nalm-6 cells, 4 μM
Protocol: as §1

HL60 = assay: as above; format: cell-based, human; conditions: HL60 cells, 4 μM
Protocol: as §1

REH = assay: as above; format: cell-based, human; conditions: REH cells, 4 μM
Protocol: as §1

**Q.** For `Cc1ccc(NC(=O)c2ccc(CN3CCN(C)CC3)cc2)cc1Nc1nccc(-c2cccnc2)n1` [Imatinib, imatinib, reference compound], which Body weight change (K562 cells) is on record?
**A.** The Body weight change was −3.26%.

**Q.** And the “Tumor growth inhibition by size” value (K562 cells)?
**A.** The value was 43.97%.

**Q.** And the “Tumor growth inhibition by weight” value (K562 cells)?
**A.** The value was 27.91%.

**Q.** And the “Average body weight, End point” value (K562 cells; end point, x ± s)?
**A.** Its value is 18.37 ± 0.54 g.

**Q.** What about the “Average body weight, Initial” value (K562 cells; initial (before treatment), x ± s) of the same compound?
**A.** The value was 18.99 ± 1.23 g.

**Q.** What about the Tumor size (K562 cells; x ± s) of the same compound?
**A.** Its Tumor size is 1744.05 ± 1049.95 mm^3.

**Q.** And the “Average body weight (g, x ± s) End point” value (MV4-11 cells)?
**A.** The value was 22.06 ± 1.74 g.

**Q.** And the “Body weight change (%)” value (MV4-11 cells)?
**A.** The value was −1.0%.

**Q.** What about the “Tumor growth Inhibition by size (%)” value (MV4-11 cells) of the same compound?
**A.** The value was 52.5%.

**Q.** And the “Tumor growth Inhibition by weight (%)” value (MV4-11 cells)?
**A.** Its value is 41.7%.

**Q.** And the “Tumor size (mm^3)” value (MV4-11 cells)?
**A.** Its value is 1040.51 ± 422.38 mm^3.

**Q.** What about the “Tumor weight (g, x ± s)” value (MV4-11 cells) of the same compound?
**A.** The value was 1.29 ± 0.42 g.

**Q.** And the inhibition at 5 µM (Nalm-6 [1])?
**A.** The inhibition at 5 µM was 0%.

**Q.** What about the inhibition at 10 µM (Nalm-6 [1]) of the same compound?
**A.** The inhibition at 10 µM was 44%.

**Q.** Which results are given for `Nc1ccccc1NC(=O)Cc1cccc(CC(=O)Nc2ccccc2N)c1` [YT19]?
**A.** Growth inhibition (FIG. 1) (Nalm-6 [2]): failed to inhibit cell growth; Growth inhibition (FIG. 1) (HL60): failed to inhibit cell growth; Growth inhibition (FIG. 1) (REH): failed to inhibit cell growth
